Data on nine molecules can be found in ChEMBL document CHEMBL1697781, “Assessment of the health effects of chemicals in humans: II. Construction of an adverse effects database for QSAR modeling” (Curr Drug Discov Technol, 2004).

What all share (conditions): human
The test system of data set [1] is Hepatotoxicity. Description: FDA HLAED, liver enzyme composite activity.
Data set [2] has as its system Hepatotoxicity. Description: FDA HLAED, alkaline phosphatase increase.
Data set [3] concerns Hepatotoxicity. The data set is described as follows: FDA HLAED, serum glutamic oxaloacetic transaminase (SGOT) increase.
Data set [4] deals with Hepatotoxicity. The data set is described as follows: FDA HLAED, serum glutamic pyruvic transaminase (SGPT) increase.
Data set [5] deals with Hepatotoxicity. The data set is described as follows: FDA HLAED, lactate dehydrogenase (LDH) increase.
Data set [6] deals with Hepatotoxicity. Description: FDA HLAED, gamma-glutamyl transferase (GGT) increase.
For GGT Increase - Index Value in this document: reference of the scale not given here.
For LDH Increase - Index Value in this document: reference of the scale not given here.

For `C[C@H]1COc2c(N3CCN(C)CC3)c(F)cc3c(=O)c(C(=O)O)cn1c23.C[C@H]1COc2c(N3CCN(C)CC3)c(F)cc3c(=O)c(C(=O)O)cn1c23.O` [LEVOFLOXACIN], in the data set on Hepatotoxicity [1], the “Composite Activity - Active” value turned out to be 0, the “Composite Activity - Marginal” value was 0 and the “Composite Activity - Score” value is given as “Inactive”. In addition, in the data set with Hepatotoxicity [2], the “Alkaline Phosphatase Increase - Activity Score” value is “Inactive”, the “Alkaline Phosphatase Increase - Index Value” is recorded as 0 and the “Alkaline Phosphatase Increase - Number of Reports” value is given as less than 4. In the data set on Hepatotoxicity [3], the “SGOT Increase - Activity Score” value is on record as “Inactive”, the “SGOT Increase - Index Value” came to 0 and the “SGOT Increase - Number of Reports” value is less than 4. In the data set with Hepatotoxicity [4], the “SGPT Increase - Activity Score” value is on record as “Inactive”, the “SGPT Increase - Index Value” turned out to be 0 and the “SGPT Increase - Number of Reports” value is given as less than 4. In the data set on Hepatotoxicity [5], the “LDH Increase - Activity Score” value is recorded as “Inactive”, the “LDH Increase - Index Value” worked out at 0 and the “LDH Increase - Number of Reports” value is recorded as less than 4. Further, in the data set on Hepatotoxicity [6], the “GGT Increase - Activity Score” value is listed as “Inactive”, the “GGT Increase - Index Value” is reported as 0 and the “GGT Increase - Number of Reports” value is recorded as less than 4.

Take `C#C[C@]1(O)CC[C@H]2[C@@H]3CCC4=CC(=O)CC[C@@H]4[C@H]3CC[C@@]21CC` [LEVONORGESTREL]: in the data set with Hepatotoxicity [1] (Liver), the “Composite Activity - Active” value came out at 5, the “Composite Activity - Marginal” value was determined as 0 and the “Composite Activity - Score” value is reported as “Active”. Moreover, in the data set with Hepatotoxicity [2], the “Alkaline Phosphatase Increase - Activity Score” value is listed as “Active”, the “Alkaline Phosphatase Increase - Index Value” was 34 and the “Alkaline Phosphatase Increase - Number of Reports” value is “>= 4”. For the same molecule, in the data set on Hepatotoxicity [3], the “SGOT Increase - Activity Score” value is “Active”, the “SGOT Increase - Index Value” came out at 39.7 and the “SGOT Increase - Number of Reports” value is reported as “>= 4”. In the data set with Hepatotoxicity [4], the “SGPT Increase - Activity Score” value was “Active”, the “SGPT Increase - Index Value” stood at 22.7 and the “SGPT Increase - Number of Reports” value is recorded as “>= 4”. In the data set with Hepatotoxicity [5], the “LDH Increase - Activity Score” value is “Active”, the “LDH Increase - Index Value” is listed as 28.3 and the “LDH Increase - Number of Reports” value is given as “>= 4”. In the data set on Hepatotoxicity [6], the “GGT Increase - Activity Score” value is “Active”, the “GGT Increase - Index Value” is reported as 34 and the “GGT Increase - Number of Reports” value is “>= 4”.

As for `NCCCC[C@H](N[C@@H](CCc1ccccc1)C(=O)O)C(=O)N1CCC[C@H]1C(=O)O` [LISINOPRIL ANHYDROUS], in the data set on Hepatotoxicity [1], the “Composite Activity - Active” value is given as 0, the “Composite Activity - Marginal” value is 0 and the “Composite Activity - Score” value is listed as “Inactive”. Also, in the data set with Hepatotoxicity [2], the “Alkaline Phosphatase Increase - Activity Score” value is “Inactive”, the “Alkaline Phosphatase Increase - Index Value” came to 2 and the “Alkaline Phosphatase Increase - Number of Reports” value is reported as “>= 4”. In the data set on Hepatotoxicity [3], the “SGOT Increase - Activity Score” value is on record as “Inactive”, the “SGOT Increase - Index Value” was determined as 1.5 and the “SGOT Increase - Number of Reports” value is on record as “>= 4”. Besides, in the data set on Hepatotoxicity [4], the “SGPT Increase - Activity Score” value was “Inactive”, the “SGPT Increase - Index Value” worked out at 1.4 and the “SGPT Increase - Number of Reports” value is “>= 4”. Also, in the data set with Hepatotoxicity [5], the “LDH Increase - Activity Score” value is reported as “Inactive”, the “LDH Increase - Index Value” is given as 1.2 and the “LDH Increase - Number of Reports” value is “>= 4”. Also, in the data set with Hepatotoxicity [6], the “GGT Increase - Activity Score” value is listed as “Inactive”, the “GGT Increase - Index Value” came to 1 and the “GGT Increase - Number of Reports” value is on record as “>= 4”.

In the case of `N#Cc1cc(NC(=O)C(=O)O)c(Cl)c(NC(=O)C(=O)O)c1` [LODOXAMIDE], in the data set on Hepatotoxicity [1], the “Composite Activity - Active” value came to 0, the “Composite Activity - Marginal” value came out at 0 and the “Composite Activity - Score” value was “Inactive”. Further, in the data set on Hepatotoxicity [2], the “Alkaline Phosphatase Increase - Activity Score” value is listed as “Inactive”, the “Alkaline Phosphatase Increase - Index Value” is recorded as 0 and the “Alkaline Phosphatase Increase - Number of Reports” value is recorded as less than 4. Moreover, in the data set on Hepatotoxicity [3], the “SGOT Increase - Activity Score” value is given as “Inactive”, the “SGOT Increase - Index Value” amounted to 0 and the “SGOT Increase - Number of Reports” value is less than 4. Also, in the data set with Hepatotoxicity [4], the “SGPT Increase - Activity Score” value is on record as “Inactive”, the “SGPT Increase - Index Value” is recorded as 0 and the “SGPT Increase - Number of Reports” value is listed as less than 4. In the data set with Hepatotoxicity [5], the “LDH Increase - Activity Score” value is given as “Inactive”, the “LDH Increase - Index Value” is 0 and the “LDH Increase - Number of Reports” value is given as less than 4. Further, in the data set with Hepatotoxicity [6], the “GGT Increase - Activity Score” value was “Inactive”, the “GGT Increase - Index Value” is listed as 0 and the “GGT Increase - Number of Reports” value was less than 4.

Regarding `N[C@@H](C(=O)N[C@@H]1C(=O)N2C(C(=O)O)=C(Cl)CC[C@H]12)c1ccccc1` [LORACARBEF ANHYDROUS], in the data set with Hepatotoxicity [1], the “Composite Activity - Active” value is reported as 0, the “Composite Activity - Marginal” value turned out to be 0 and the “Composite Activity - Score” value is listed as “Inactive”. Also, in the data set with Hepatotoxicity [2], the “Alkaline Phosphatase Increase - Activity Score” value is reported as “Inactive”, the “Alkaline Phosphatase Increase - Index Value” is given as 0.2 and the “Alkaline Phosphatase Increase - Number of Reports” value is less than 4. For the same molecule, in the data set with Hepatotoxicity [3], the “SGOT Increase - Activity Score” value is listed as “Inactive”, the “SGOT Increase - Index Value” is 0.2 and the “SGOT Increase - Number of Reports” value was less than 4. Also, in the data set with Hepatotoxicity [4], the “SGPT Increase - Activity Score” value is on record as “Inactive”, the “SGPT Increase - Index Value” turned out to be 0.2 and the “SGPT Increase - Number of Reports” value was less than 4. In addition, in the data set on Hepatotoxicity [5], the “LDH Increase - Activity Score” value is “Inactive”, the “LDH Increase - Index Value” came out at 0 and the “LDH Increase - Number of Reports” value is reported as less than 4. In the data set with Hepatotoxicity [6], the “GGT Increase - Activity Score” value is listed as “Inactive”, the “GGT Increase - Index Value” is recorded as 0.1 and the “GGT Increase - Number of Reports” value is less than 4.

With `CCOC(=O)N1CCC(=C2c3ccc(Cl)cc3CCc3cccnc32)CC1` [LORATADINE], in the data set with Hepatotoxicity [1] (Liver), the “Composite Activity - Active” value came out at 0, the “Composite Activity - Marginal” value was determined as 0 and the “Composite Activity - Score” value is given as “Inactive”. Moreover, in the data set on Hepatotoxicity [2], the “Alkaline Phosphatase Increase - Activity Score” value is listed as “Inactive”, the “Alkaline Phosphatase Increase - Index Value” came out at 0.7 and the “Alkaline Phosphatase Increase - Number of Reports” value is listed as “>= 4”. Further, in the data set with Hepatotoxicity [3], the “SGOT Increase - Activity Score” value was “Inactive”, the “SGOT Increase - Index Value” was 0.9 and the “SGOT Increase - Number of Reports” value was “>= 4”. Besides, in the data set with Hepatotoxicity [4], the “SGPT Increase - Activity Score” value is on record as “Inactive”, the “SGPT Increase - Index Value” came to 0.6 and the “SGPT Increase - Number of Reports” value was “>= 4”. Also, in the data set on Hepatotoxicity [5], the “LDH Increase - Activity Score” value is listed as “Inactive”, the “LDH Increase - Index Value” was 0.2 and the “LDH Increase - Number of Reports” value was less than 4. For the same molecule, in the data set with Hepatotoxicity [6], the “GGT Increase - Activity Score” value is “Inactive”, the “GGT Increase - Index Value” is reported as 0.5 and the “GGT Increase - Number of Reports” value was “>= 4”.

For the molecule `CCCCc1nc(Cl)c(CO)n1Cc1ccc(-c2ccccc2-c2nn[nH]n2)cc1` [LOSARTAN], in the data set with Hepatotoxicity [1], the “Composite Activity - Active” value was 0, the “Composite Activity - Marginal” value turned out to be 0 and the “Composite Activity - Score” value is reported as “Inactive”. In addition, in the data set with Hepatotoxicity [2], the “Alkaline Phosphatase Increase - Activity Score” value was “Inactive”, the “Alkaline Phosphatase Increase - Index Value” is recorded as 0.4 and the “Alkaline Phosphatase Increase - Number of Reports” value is less than 4. Besides, in the data set with Hepatotoxicity [3], the “SGOT Increase - Activity Score” value was “Inactive”, the “SGOT Increase - Index Value” is listed as 0.8 and the “SGOT Increase - Number of Reports” value is “>= 4”. Further, in the data set with Hepatotoxicity [4], the “SGPT Increase - Activity Score” value was “Inactive”, the “SGPT Increase - Index Value” was 1 and the “SGPT Increase - Number of Reports” value was “>= 4”. For the same molecule, in the data set with Hepatotoxicity [5], the “LDH Increase - Activity Score” value is recorded as “Inactive”, the “LDH Increase - Index Value” came out at 0.4 and the “LDH Increase - Number of Reports” value is less than 4. For the same molecule, in the data set with Hepatotoxicity [6], the “GGT Increase - Activity Score” value is “Inactive”, the “GGT Increase - Index Value” stood at 0.6 and the “GGT Increase - Number of Reports” value is less than 4.

In the case of `CNCCCC12CCC(c3ccccc31)c1ccccc12` [MAPROTILINE], in the data set with Hepatotoxicity [1] (Liver), the “Composite Activity - Active” value is reported as 0, the “Composite Activity - Marginal” value came to 0 and the “Composite Activity - Score” value was “Inactive”. In addition, in the data set on Hepatotoxicity [2], the “Alkaline Phosphatase Increase - Activity Score” value was “Inactive”, the “Alkaline Phosphatase Increase - Index Value” came out at 0.5 and the “Alkaline Phosphatase Increase - Number of Reports” value is given as less than 4. Further, in the data set with Hepatotoxicity [3], the “SGOT Increase - Activity Score” value is “Inactive”, the “SGOT Increase - Index Value” came to 0.3 and the “SGOT Increase - Number of Reports” value was less than 4. In the data set with Hepatotoxicity [4], the “SGPT Increase - Activity Score” value is “Inactive”, the “SGPT Increase - Index Value” was determined as 0.3 and the “SGPT Increase - Number of Reports” value is given as less than 4. Moreover, in the data set on Hepatotoxicity [5], the “LDH Increase - Activity Score” value is on record as “Inactive”, the “LDH Increase - Index Value” worked out at 0 and the “LDH Increase - Number of Reports” value is given as less than 4. In addition, in the data set with Hepatotoxicity [6], the “GGT Increase - Activity Score” value was “Inactive”, the “GGT Increase - Index Value” turned out to be 0 and the “GGT Increase - Number of Reports” value is less than 4.

Regarding `C=C1c2c(Cl)ccc(O)c2C(=O)C2=C(O)[C@]3(O)C(=O)C(C(N)=O)=C(O)[C@@H](N(C)C)[C@@H]3[C@@H](O)[C@H]12` [MECLOCYCLINE], in the data set with Hepatotoxicity [1], the “Composite Activity - Active” value was 0, the “Composite Activity - Marginal” value is reported as 0 and the “Composite Activity - Score” value is given as “Inactive”. Also, in the data set with Hepatotoxicity [2], the “Alkaline Phosphatase Increase - Activity Score” value is on record as “Inactive”, the “Alkaline Phosphatase Increase - Index Value” is given as 0 and the “Alkaline Phosphatase Increase - Number of Reports” value is listed as less than 4. Besides, in the data set on Hepatotoxicity [3], the “SGOT Increase - Activity Score” value was “Inactive”, the “SGOT Increase - Index Value” is reported as 0 and the “SGOT Increase - Number of Reports” value is reported as less than 4. Besides, in the data set on Hepatotoxicity [4], the “SGPT Increase - Activity Score” value was “Inactive”, the “SGPT Increase - Index Value” is on record as 0 and the “SGPT Increase - Number of Reports” value was less than 4. In the data set with Hepatotoxicity [5], the “LDH Increase - Activity Score” value was “Inactive”, the “LDH Increase - Index Value” worked out at 0 and the “LDH Increase - Number of Reports” value is less than 4. In the data set on Hepatotoxicity [6], the “GGT Increase - Activity Score” value was “Inactive”, the “GGT Increase - Index Value” was 0 and the “GGT Increase - Number of Reports” value is on record as less than 4.
